Laboratory results taken from PMC3466195, “Potassium Acts as a GTPase-Activating Element on Each Nucleotide-Binding Domain of the Essential Bacillus subtilis EngA” (PLoS ONE, 2012).
Read-outs that look alike come from different tables or passages of the source.

How the values were obtained:
S. typhimurium EngA = target: S. typhimurium EngA; parameters: method as in PMID 17905831; settings: cited from earlier work
[1] = target: T1, GD1 (shortened B. subtilis EngA variant) (Bacillus subtilis, UniProt P50743); test: Nucleotide binding monitored by intrinsic tryptophan fluorescence
T1 construct: two shortened EngA variants that only contain GD1 or GD2-KH; His-tag (from pET15b; purified on Ni-IDA) (N); made in house; host or cells: E. coli C41(DE3)
Procedure: (§1) Fluorescence measurements were performed essentially as described previously for the unmodified nucleotides or the N-methylanthraniloyl-GDP (MANT-GDP) analogue using a PTI QuantaMaster 4 spectrofluorimeter, [62]. Dissociation constants (K D) for nucleotides were calculated by monitoring intrinsic tryptophan fluorescence variation using 295 nm excitation wavelength, with a slit width of 2 nm, and scanning emission fluorescence between 310 and 400 nm (for the unmodified nucleotide) or 400 and 500 nm (for MANT-GDP), with a slit width of 4 nm. For the intrinsic tryptophan fluorescence, inner filter effect was corrected using N-Acetyltryptophanamide (NATA) as a reference. 1 µM NATA or 0.5 µM of YphC were mixed with 50 mM Tris/HCl pH 8, 2 mM MgCl2, NaCl or KCl and increasing amount of nucleotide (GDP, GMPPNP or MANT-GDP), as indicated in the figure legends. The fluorescence was normalized respective to the integrated value of the fluorescence peak obtained in the absence of unmodified nucleotide (between 310 and 400 nm) or MANT-GDP (between 400 and 500 nm). The data were fitted using the GraFit 5.0.11 software with the following equation: [drawing 1] where F is the relative fluorescence intensity in the presence of nucleotide, F min is the relative fluorescence in the absence of nucleotide, F max is the fluorescence intensity at saturating concentration of nucleotide, L is the nucleotide concentration, E is the protein concentration and K D is the dissociation constant of the protein-nucleotide complex.

[2] = target: T2, GD2-KH (shortened B. subtilis EngA variant) (Bacillus subtilis, UniProt P50743); test: as above
T2 construct: two shortened EngA variants that only contain GD1 or GD2-KH; His-tag (from pET15b; purified on Ni-IDA) (N); made in house; host or cells: E. coli C41(DE3)
Procedure: as §1

B. subtilis EngA [3] = target: T3, B. subtilis EngA (Bacillus subtilis, UniProt P50743); test: as above; settings: KD
T3 construct: full-length EngA (named hereafter as EngA) and its two shortened EngA variants, GD1 and GD2-KH were overexpressed in E. coli; His-tag (from pET15b; purified on Ni-IDA) (N); made in house; host or cells: E. coli C41(DE3)
T3 sequence (P50743 1-436): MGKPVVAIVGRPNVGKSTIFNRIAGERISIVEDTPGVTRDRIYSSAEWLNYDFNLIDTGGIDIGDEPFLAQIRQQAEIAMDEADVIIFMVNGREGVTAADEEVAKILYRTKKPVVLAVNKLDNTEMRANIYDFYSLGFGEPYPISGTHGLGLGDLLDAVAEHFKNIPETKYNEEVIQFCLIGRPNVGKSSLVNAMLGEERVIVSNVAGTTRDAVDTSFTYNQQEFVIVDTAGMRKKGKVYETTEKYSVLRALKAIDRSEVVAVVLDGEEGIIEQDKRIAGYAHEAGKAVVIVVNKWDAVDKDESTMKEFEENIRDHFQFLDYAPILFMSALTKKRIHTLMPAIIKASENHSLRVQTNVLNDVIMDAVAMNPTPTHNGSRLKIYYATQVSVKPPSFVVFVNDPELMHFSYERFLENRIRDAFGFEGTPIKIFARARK
Procedure: as §1

GD2-KH [4] = target: T4, GD2-KH (Bacillus subtilis, UniProt P50743); test: Fluorescence-based Thermal Shift Assay (TSA); type: binding
T4 construct: two shortened EngA variants that only contain GD1 or GD2-KH; His-tag (from pET15b; purified on Ni-IDA) (N); made in house; host or cells: E. coli C41(DE3)
T4 sequence (P50743 173-436): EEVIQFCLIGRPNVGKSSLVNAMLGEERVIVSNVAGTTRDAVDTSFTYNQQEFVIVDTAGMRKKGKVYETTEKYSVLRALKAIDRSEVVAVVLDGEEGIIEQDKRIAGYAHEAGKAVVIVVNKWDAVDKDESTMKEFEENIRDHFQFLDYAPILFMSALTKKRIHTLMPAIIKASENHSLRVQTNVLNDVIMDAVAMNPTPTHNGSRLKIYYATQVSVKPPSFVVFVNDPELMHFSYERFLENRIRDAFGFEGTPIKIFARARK
Procedure: (§2) Assays were performed into a 96-well thin-wall PCR plate (BioRad) using an IQ5 96-well format real-time PCR instrument (Bio-Rad) over a temperature range from 20°C to 90°C with temperature increments of 0.2°C [64]. Assay samples (23 µl) contained 50 mM Tris/HCl pH 8, 0.5 mg/ml of EngA or 1.5 mg/ml of GD1 or GD2-KH, and concentration of salt and/or nucleotides as indicated, and 2 µl of SYPRO Orange solution (Molecular Probes, Eugene, OR, 500x in DMSO diluted 5 times in water) was added. The plates were heated and changes in fluorescence for the environmentally sensitive dye SYPRO Orange were monitored through a charge-coupled device (CCD) camera. The melting temperature (Tm) values for each protein were determined graphically from the fluorescence first derivative of the melting curves. The wavelengths for excitation and emission were 470 nm and 570 nm, respectively.

EngA = target: T5, EngA (Bacillus subtilis, UniProt P50743); test: Fluorescence-based Thermal Shift Assay (TSA); type: binding; settings: EngA with 1 mM nucleotide; no effector Tm 41.5
T5 construct: full-length EngA (named hereafter as EngA) and its two shortened EngA variants, GD1 and GD2-KH were overexpressed in E. coli; His-tag (from pET15b; purified on Ni-IDA) (N); made in house; host or cells: E. coli C41(DE3)
T5 sequence (P50743 1-436): T3 sequence (P50743 1-436)
Procedure: as §2

GD1 [5] = target: T6, GD1 (Bacillus subtilis, UniProt P50743); test: Fluorescence-based Thermal Shift Assay (TSA); type: binding
T6 construct: two shortened EngA variants that only contain GD1 or GD2-KH; His-tag (from pET15b; purified on Ni-IDA) (N); made in house; host or cells: E. coli C41(DE3)
T6 sequence (P50743 4-167 limits assumed): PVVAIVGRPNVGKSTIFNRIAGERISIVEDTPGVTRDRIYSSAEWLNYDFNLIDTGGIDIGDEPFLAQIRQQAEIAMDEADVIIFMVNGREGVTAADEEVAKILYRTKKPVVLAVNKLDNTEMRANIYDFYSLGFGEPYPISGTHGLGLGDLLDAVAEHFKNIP
Procedure: as §2

GD2-KH [6] = target: T4, GD2-KH; test: GTP hydrolysis coupled-enzymatic assay; type: biochemical; settings: for GTPase activity: GD2-KH
Procedure: (§3) GTPase activities were determined using a coupled-enzymatic assay containing pyruvate kinase and lactate dehydrogenase as previously described. The proteins (2 µM or 8 µM of EngA in the presence of KCl or NaCl, respectively, and 4 µM for GD1 and 12.5 µM for GD2-KH) and the coupled assay system containing 50 mM Tris/HCl pH 8, 4 mM phosphoenol pyruvate, 0.4 mM NADH, 1 mM MgCl2, 30 µg pyruvate kinase and 15 µg lactate dehydrogenase, were mixed into a quartz cuvette (final volume of 750 µl) in the presence of GTP (up to 1 mM) and salts, either KCl or NaCl, as indicated in the figure legends. When the GTPase and XTPase activities of the wild-type EngA and the single point mutants were studied (Fig. 7), the assay medium (final volume of 500 µl) contained 3 mM MgCl2 and the pyruvate kinase was increased to 120 µg to ensure an immediate conversion of XDP back into XTP. The reaction was started by adding 3.2 µM or 0.8 µM of wild-type EngA or single point mutants in the absence or presence of 300 mM K^+, respectively. GTP or XTP hydrolysis was monitored by following the change in absorbance at 340 nm upon conversion of NADH to NAD^+, for 10 min at 37°C, using either a Hitachi U3350 or a Safas UVmc^2 spectrophotometer. The slope measured (ΔDO/min) was used to calculate the activity of the protein taking into account the εNADH340nm = 6220 l.mol^−1.cm^−1. Control experiments were systematically performed in the absence of nucleotides (protein alone) or in the absence of proteins (nucleotides alone) and the activities measured in all cases were negligible. Between many different EngA preparations, the specific activities measured at 1 mM GTP varied between 100–130 nmoles/min/mg protein.

GD1 [7] = target: T6, GD1; test: GTP hydrolysis coupled-enzymatic assay; type: biochemical
Procedure: as §3

B. subtilis EngA [8] = target: T7, B. subtilis EngA (Bacillus subtilis, UniProt P50743); type: biochemical; settings: for Km / Vmax / kcat: GTP hydrolysis by EngA; for kcat: fitted; for GTPase activity corresponding to 100%: wild-type EngA, 300 mM KCl
T7 construct: full-length EngA (named hereafter as EngA) and its two shortened EngA variants, GD1 and GD2-KH were overexpressed in E. coli; His-tag (from pET15b; purified on Ni-IDA) (N); made in house; host or cells: E. coli C41(DE3)
Procedure: as §3

E. coli EngA = test system: E. coli EngA; parameters: method as in PMID 16963571; settings: cited from earlier work
M. smegmatis EngA = test system: M. smegmatis EngA; parameters: method as in PMID 22506030; settings: cited from earlier work
T. maritima EngA = settings: cited from earlier work

Nc1nc2c(ncn2[C@@H]2O[C@H](COP(=O)(O)OP(=O)(O)O)[C@@H](O)[C@H]2O)c(=O)[nH]1 [GDP]
Kd (S. typhimurium EngA; both G-domains): 1 to 3 µM
Kd ([1]; GD1, 300 mM KCl): 4.5 ± 0.9 µM
Kd ([1]; GD1, 300 mM NaCl): 2.7 ± 0.4 µM
Kd ([2]; 300 mM KCl): 2.9 ± 0.8 µM
Kd ([2]; 300 mM NaCl): 1.6 ± 0.2 µM
Kd (B. subtilis EngA [3]; 300 mM KCl): 16.3 ± 2.3 µM
Kd (B. subtilis EngA [3]; 300 mM NaCl): 12.8 ± 2.9 µM
Kd (B. subtilis EngA [3]; no salt (absence of K+), 2 mM MgCl2, 25°C): 8 ± 1 µM
Tm (GD2-KH [4]; GD2-KH with 1 mM nucleotide, no effector Tm 42.8): 55.8 °C
ΔTm at 1000 µM (GD2-KH [4]; pH 8, read-out: Tm increase): ~13 °C
Tm (EngA): 59.4 °C
Tm (GD1 [5]; GD1 with 1 mM nucleotide, no effector Tm 51): 64 °C
ΔTm at 1000 µM (GD1 [5]; pH 8, read-out: Tm increase): ~13 °C

Nc1nc2c(ncn2[C@@H]2O[C@H](COP(=O)(O)OP(=O)(O)OP(=O)(O)O)[C@@H](O)[C@H]2O)c(=O)[nH]1 [GTP]
GTPase activity (GD2-KH [6]; absence of K+): 0.004 min⁻¹
GTPase activity (GD1 [7]; GD1, absence of K+): ~0.6 min⁻¹
Kd (S. typhimurium EngA; higher-affinity site (proposed GD1)): ~12 µM
Kd (S. typhimurium EngA; lower-affinity site (proposed GD2)): > 100 µM
specific activity (B. subtilis EngA [8]; 1 mM GTP, different EngA preparations): 100–130 nmoles/min/mg protein
GTPase activity (kcat) (B. subtilis EngA [8]; EngA, absence of K+): 0.005 to 0.0083 s⁻¹
Km (B. subtilis EngA [8]; 300 mM K+): 153 µM
Vmax (B. subtilis EngA [8]; 300 mM K+): 144.5±3.4 nmol/min/mg protein
kcat (B. subtilis EngA [8]; 300 mM K+): ~0.123 s⁻¹
Vmax (B. subtilis EngA [8]; absence of K+): 6.1±0.2 nmol/min/mg protein
Km (B. subtilis EngA [8]; no K+): 111 µM
kcat (B. subtilis EngA [8]; no K+): ~0.005 s⁻¹
GTPase activity corresponding to 100% (B. subtilis EngA [8]; 200 µM nucleotide): 77 µmol GTP hydrolyzed/min/mg proteins
GTPase activity corresponding to 100% (B. subtilis EngA [8]; 1 mM GTP): 100 µmol GTP hydrolyzed/min/mg proteins
kcat (E. coli EngA; 400 mM K+): 0.0193 s⁻¹
Km (E. coli EngA; GTP, E. coli EngA): 143 µM
Km (M. smegmatis EngA; GTP, M. smegmatis EngA): 39 µM
kcat (M. smegmatis EngA; absence of K+): 8.3e-05 s⁻¹
kcat (T. maritima EngA; 400 mM K+): 0.0145 s⁻¹
Km (T. maritima EngA; GTP, T. maritima EngA): 110 µM

[K+] [K^+, potassium]
GTPase activity (GD2-KH [6]; 1M KCl): ~0.45 min⁻¹
increase of GTPase activity upon K+ binding (GD2-KH [6]; GD2 domain): ~100 fold
K+ concentration giving maximal GTPase activity (GD1 [7]; GD1): 500 mM
GTPase activity (GD1 [7]; GD1, 1M KCl): ~3.4 min⁻¹
increase in catalytic efficiency of EngA (B. subtilis EngA [8]; 300 mM K+ vs absence of K+): 20 fold
stimulation of the GTPase activity of EngA (B. subtilis EngA [8]; 1 M KCl, 1 mM GTP): ~15 fold
GTPase activity (B. subtilis EngA [8]; EngA, 0.4 M KCl): ~5 min⁻¹
GTPase activity (T. maritima EngA; 0.4 M KCl): 0.11 min⁻¹
stimulation of GTPase activity by K+ (T. maritima EngA; T. maritima EngA): about 4 fold
